# Measurements as given in patent publication US9708314B2, “Heterocyclic amide compound” (NISSAN CHEMICAL INDUSTRIES, LTD., priority 2013, dated 2017).
# Key:
# Type in all cases: in vivo
# [1] = system: Scirpus juncoides; test: Test Example 1: herbicidal activity, application before weed generation in submerged conditions; details: Application herbicide amount 320 g/ha; Seventeenth Table
# Procedure, shortened: (§1)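 Submerged pot test: alluvial soil, 4 cm water, seeds sown mixed, 2.5-leaf rice transplanted; emulsion in water applied to surface day of sowing, dose g/ha; greenhouse 25–30° C.; 3 wk; 0–5 rating.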
# [2] = system: Monochoria vaginalis; test: as above; details: Application herbicide amount 320 g/ha; Seventeenth Table
# Procedure, shortened: as §1
# [3] = system: Echinochloa oryzacola Vasing.; test: as above; details: Application herbicide amount 320 g/ha; Seventeenth Table
# Procedure, shortened: as §1
# [4] = system: Echinochloa oryzacola Vasing.; test: Test Example 2: herbicidal activity, application during weed generation in submerged conditions; details: Eighteenth Table; application herbicide amount 320 g/ha
# Procedure, shortened: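 Paddy-type pot test: flooded soil, 4 cm depth, greenhouse 25–30 °C. Emulsion formulation diluted in water, applied to water surface at 1–2 leaf stage; rate expressed as g/ha. Read-out at 3 wk, 0–5 score.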
# [5] = system: transplanted Oryza sativa; test: Test Example 1: effect on crop, application before weed generation in submerged conditions; details: Application herbicide amount 320 g/ha; Seventeenth Table
# Procedure, shortened: as §1
# [6] = system: Lolium multiflorum Lam.; test: Test Example 4: herbicidal effect by application to foliage (diluvial soil, plastic box); details: for K: herbicidal effect on Lolium multiflorum Lam.: application to foliage, application herbicide amount 320 g/ha; for K (Lolium multiflorum Lam.) herbicidal effect grade: foliage application
# Procedure, shortened: (§2)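 Read-out is a 0–5 visual grade of herbicidal ratio (5: ≥90%, almost withered; 0: ≤5%) taken three weeks after treatment. Compound was applied as a diluted emulsion to stem and leaf parts of 14-day greenhouse-grown plants (25° C. to 30° C.) at rates expressed as g/ha.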
# [7] = system: Galium spurium; test: as above; details: for Q: herbicidal effect on Galium spurium: application to foliage, application herbicide amount 320 g/ha; for Q (Galium spurium) herbicidal effect grade: foliage application
# Procedure, shortened: as §2
# [8] = system: Avena fatua; test: as above; details: for I: herbicidal effect on Avena fatua: application to foliage, application herbicide amount 320 g/ha; for I (Avena fatua) herbicidal effect grade: foliage application
# Procedure, shortened: as §2
# [9] = system: Echinochloa crus-galli var. crus-galli; test: as above; details: for H: herbicidal effect on Echinochloa crus-galli var. crus-galli: application to foliage, application herbicide amount 320 g/ha; for H (Echinochloa crus-galli var. crus-galli) herbicidal effect grade: foliage application
# Procedure, shortened: as §2
# [10] = Application herbicide amount 320 g/ha
SMILES,B: Scirpus juncoides (herbicidal effect grade) [1],C: Monochoria vaginalis (herbicidal effect grade) [2],A: Echinochloa oryzicola Vasing. (herbicidal effect grade) [3],A (Echinochloa oryzicola Vasing.) herbicidal ratio grade [4],a: transplanted Oryza sativa (effect on crop grade) [5],K: herbicidal effect on Lolium multiflorum Lam. [6],Q: herbicidal effect on Galium spurium [7],I: herbicidal effect on Avena fatua [8],H: herbicidal effect on Echinochloa crus-galli var. crus-galli [9],"K (Lolium multiflorum Lam.) herbicidal effect grade [6, 10]","Q (Galium spurium) herbicidal effect grade [7, 10]","I (Avena fatua) herbicidal effect grade [8, 10]","H (Echinochloa crus-galli var. crus-galli) herbicidal effect grade [9, 10]",other results
"COCc1nnc2c(C(=O)Nc3nnnn3C)ccc(C(F)(F)F)n12 [2-010, 3-(Methoxymethyl)-N-(1-methyl-1H-tetrazol-5-yl)-5-(trifluoromethyl)-[1,2,4]triazol o[4,3-a]pyridine-8-carboxamide]",5 (Herbicidal ratio of 90% or more (almost completely withered)),4 (Herbicidal ratio of 70% or more and less than 90%),5 (Herbicidal ratio of 90% or more (almost completely withered)),5 (Herbicidal ratio of 90% or more (almost completely withered)),4 (Herbicidal ratio of 70% or more and less than 90%),3 (Herbicidal ratio of 40% or more and less than 70%),4 (Herbicidal ratio of 70% or more and less than 90%),4 (Herbicidal ratio of 70% or more and less than 90%),5 (Herbicidal ratio of 90% or more (almost completely withered)),,,,,
COC1CCC(c2nnc3c(C(=O)Nc4nnc(C)o4)ccc(C(F)(F)F)n23)CC1 (stereo not drawn) [1-169],4 (Herbicidal ratio of 70% or more and less than 90%),4 (Herbicidal ratio of 70% or more and less than 90%),5 (Herbicidal ratio of 90% or more (almost completely withered)),3 (Herbicidal ratio of 40% or more and less than 70%),0 (Herbicidal ratio of 5% or less (almost no effect)),1 (Herbicidal ratio of 5% or more and less than 20%),1 (Herbicidal ratio of 5% or more and less than 20%),1 (Herbicidal ratio of 5% or more and less than 20%),5 (Herbicidal ratio of 90% or more (almost completely withered)),,,,,
CCCc1nnc2c(C(=O)Nc3nnnn3C)ccc(C(F)(F)F)n12 [2-019],5 (Herbicidal ratio of 90% or more (almost completely withered)),4 (Herbicidal ratio of 70% or more and less than 90%),5 (Herbicidal ratio of 90% or more (almost completely withered)),4 (Herbicidal ratio of 70% or more and less than 90%),2 (Herbicidal ratio of 20% or more and less than 40%),2 (Herbicidal ratio of 20% or more and less than 40%),3 (Herbicidal ratio of 40% or more and less than 70%),3 (Herbicidal ratio of 40% or more and less than 70%),5 (Herbicidal ratio of 90% or more (almost completely withered)),,,,,
O=C(Nc1nnco1)c1ccc(C(F)(F)F)n2c(-c3ccc(Cl)nc3)nnc12 [1-150],5 (Herbicidal ratio of 90% or more (almost completely withered)),5 (Herbicidal ratio of 90% or more (almost completely withered)),5 (Herbicidal ratio of 90% or more (almost completely withered)),5 (Herbicidal ratio of 90% or more (almost completely withered)),4 (Herbicidal ratio of 70% or more and less than 90%),,,,,3 (Herbicidal ratio of 40% or more and less than 70%),4 (Herbicidal ratio of 70% or more and less than 90%),3 (Herbicidal ratio of 40% or more and less than 70%),5 (Herbicidal ratio of 90% or more (almost completely withered)),
Cc1nnc(NC(=O)c2ccc(C(F)(F)F)n3c(NCC(F)(F)F)nnc23)o1 [1-131],1 (Herbicidal ratio of 5% or more and less than 20%),0 (Herbicidal ratio of 5% or less (almost no effect)),2 (Herbicidal ratio of 20% or more and less than 40%),0 (Herbicidal ratio of 5% or less (almost no effect)),0 (Herbicidal ratio of 5% or less (almost no effect)),,,,,0 (Herbicidal ratio of 5% or less (almost no effect)),0 (Herbicidal ratio of 5% or less (almost no effect)),0 (Herbicidal ratio of 5% or less (almost no effect)),4 (Herbicidal ratio of 70% or more and less than 90%),
C#CCN(C)c1nnc2c(C(=O)Nc3nnc(C)o3)ccc(C(F)(F)F)n12 [1-152],4 (Herbicidal ratio of 70% or more and less than 90%),3 (Herbicidal ratio of 40% or more and less than 70%),5 (Herbicidal ratio of 90% or more (almost completely withered)),3 (Herbicidal ratio of 40% or more and less than 70%),2 (Herbicidal ratio of 20% or more and less than 40%),,,,,1 (Herbicidal ratio of 5% or more and less than 20%),1 (Herbicidal ratio of 5% or more and less than 20%),2 (Herbicidal ratio of 20% or more and less than 40%),4 (Herbicidal ratio of 70% or more and less than 90%),
COCCSc1nnc2c(C(=O)Nc3nnc(C)o3)ccc(C(F)(F)F)n12 [1-063],4 (Herbicidal ratio of 70% or more and less than 90%),3 (Herbicidal ratio of 40% or more and less than 70%),5 (Herbicidal ratio of 90% or more (almost completely withered)),4 (Herbicidal ratio of 70% or more and less than 90%),0 (Herbicidal ratio of 5% or less (almost no effect)),,,,,,,,,"K [6, 10]: 2 (Herbicidal ratio of 20% or more and less than 40%); Q [7, 10]: 3 (Herbicidal ratio of 40% or more and less than 70%); I [8, 10]: 2 (Herbicidal ratio of 20% or more and less than 40%); H [9, 10]: 5 (Herbicidal ratio of 90% or more (almost completely withered))"
CSCc1nnc2c(C(=O)Nc3nnnn3C)ccc(C(F)(F)F)n12 [2-029],5 (Herbicidal ratio of 90% or more (almost completely withered)),5 (Herbicidal ratio of 90% or more (almost completely withered)),5 (Herbicidal ratio of 90% or more (almost completely withered)),5 (Herbicidal ratio of 90% or more (almost completely withered)),5 (Herbicidal ratio of 90% or more (almost completely withered)),,,,,,,,,K (Lolium multiflorum Lam.) herbicidal effect grade ([6]; 320 g/ha): 5 (Herbicidal ratio of 90% or more (almost completely withered)); Q (Galium spurium) herbicidal effect grade ([7]; 320 g/ha): 4 (Herbicidal ratio of 70% or more and less than 90%); I (Avena fatua) herbicidal effect grade ([8]; 320 g/ha): 5 (Herbicidal ratio of 90% or more (almost completely withered)); H (Echinochloa crus-galli var. crus-galli) herbicidal effect grade ([9]; 320 g/ha): 5 (Herbicidal ratio of 90% or more (almost completely withered))
